The results in this text go back to patent US10428024B2, “Piperidinyl derivatives” (MERCK PATENT GMBH, priority 2016, dated 2019).

One test has as its target human PDHK2 (12-407) (Homo sapiens (Human), UniProt Q15119). The experiment in a line: Isothermal titration calorimetry (ITC). Conditions: 30° C., pH 7.5; read-out: Binding (ITC) KD. Put shortly: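 Untagged PDHK2 (12-407) from E. coli at 50 μM titrated into 5 μM compound at 30° C in pH 7.5 HEPES/KCl/MgCl2/phosphate buffer, ≤1% DMSO. One-site fit gave KA, ΔH^obs and N after heat-of-dilution correction; protein concentration referenced to a standard inhibitor and compound concentration adjusted to 1:1 stoichiometry.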

The target in the next test is PDHK2 (Homo sapiens (Human), UniProt Q15119). Nature of the test: Biochemical activity testing of PDHK2: PDC inactivation assay. Conditions: human rec PDHK2, 5 μM ATP, read-out: IC50 PDHK2 (enzyme assay). The essentials: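 Human recombinant PDHK2 (137 nM final) and porcine heart PDC (20 mU/ml) preincubated with compound 30 min at room temperature, pH 7.0; kinase reaction started with 5 μM ATP, 30 min at 37° C. Residual PDC activity read as NADH fluorescence increase over 45 min; IC50 referenced to inhibitor-free reaction and 3 mM DCA.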

Test [1] relates to PDH-E1alpha (pSer300) in HEK293T cells. The experiment in a line: Cellular immunofluorescence assay (Anti-PDH-E1alpha (pSer300)) in HEK293T cells. Type of test: cell-based. Conditions: Homo sapiens, HEK-293T, 5 hours incubation, read-out: IC50 (cell data). Here is the method: Cellular Assay for Determination of Compound Activities
Compound activities were determined in a cellular immunofluorescence assay.
Human HEK293T cells were seeded into black 384-well plates with clear bottom and grown overnight.
Next day, test compounds were added to the wells and the plates incubated for 5 hours. Following this, cells were fixed with formaldehyde, permeabilised and blocked. The primary antibody, Anti-PDH-E1alpha (pSer300), AP1064 (Merck Millipore) was added and incubated overnight in the plate wells. Next, cells were washed and the secondary antibody, Alexa Fluor 488, goat anti-rabbit ab (A-11008, Invitrogen) was added together with Hoechst 33258 (H3569, Invitrogen) and incubated for 1 hour in the plate wells. Finally, cells were washed and the plates were measured on the laser scanning cytometer acumen hci (TTpLabtech).
The raw data were normalized against a pharmacological inhibitor control and dose response curves were generated by plotting the percent effect values using the software package Genedata screener (Genedata).

`CCN(C(=O)c1ccc(C#N)cc1)C1CCN(C(=O)[C@@](C)(O)C(F)(F)F)CC1` [Compound A66, 4-Cyano-N-ethyl-N-[1-((R)-3,3,3-trifluoro-2-hydroxy-2-methyl-propionyl)-piperidin-4-yl]-benzamide]: the Kd at human PDHK2 (12-407) was determined as 0.35 µM. Also, the figures for the IC50 (at PDHK2; in test [1]) were 2.1 µM and 2.7 µM, respectively.

Take `CC(C)N(C(=O)c1ccc(C#N)cc1)C1CCN(C(=O)[C@@](C)(O)C(F)(F)F)CC1` [Compound A67, 4-Cyano-N-isopropyl-N-[1-((R)-3,3,3-trifluoro-2-hydroxy-2-methyl-propionyl)-piperidin-4-yl]-benzamide]: on human PDHK2 (12-407), the Kd was 0.47 µM. The IC50 stood at 1.6 µM on PDHK2 and 4.1 µM in test [1].

A word on the Kd: it is the concentration at which binding is half-saturated. As usually defined, the IC50 is the point on the concentration scale where inhibition reaches its midpoint.
